Source: patent publication EP2430044B1, “PEPTIDES INCREASING THE SECRETION AND/OR EXPRESSION OF AT LEAST ONE GAS[…] AND/OR INDUCING THE INCREASE OF MUCUS CELLS OR PANETH CELLS” (Institut National de la Recherche Agronomique (INRA), priority 2009, dated 2010)

What was measured:
Type in all cases: cell-based, humaine
HT29-MTX = test: Mucin secretion by HT29-MTX cells (ELLA on culture supernatants); settings: pre-incubation with cyprodime 10^-5 M
Protocol: (§1) Les cellules HT29-MTX et HT29-CI16E étaient cultivées en flasques de 25 cm^2 avec du milieu minimum essentiel DMEM supplémenté avec 10% de SVF (sérum de veau foetal) et 1 % d'antibiotiques (pénicilline 10 000 Ul/ml et streptomycine […]). Les cellules étaient incubées à 37°C dans une atmosphère humide (5 % de CO2 et […]). A confluence, les cellules soumises au préalable à l'action de la trypsine (trypsine-EDTA) étaient cultivées dans des plaques 12 puits à raison de 1 ml de milieu de culture complet par puits. Afin de maintenir les cellules dans des conditions optimales de croissance, le milieu de culture était changé tous les 2 jours.
(§2) Les expériences ont été réalisées sur les plaques 12 puits 21 jours après confluence des cellules. La veille de la stimulation, les plaques étaient cultivées sans SVF. Le pool peptidique total des yaourts ainsi que les différentes fractions lyophilisées étaient d'abord repris dans de l'eau stérile en solution 10 fois concentrée (10[Y]), [Y] correspondant à la concentration des peptides dans le yaourt initial). L'osmolarité et le pH des échantillons (ajusté à la neutralité par NaOH) étaient contrôlés à ce stade. Des dilutions successives ([Y], [Y]/2 et [Y]/5) étaient ensuite réalisées dans du milieu de culture dépourvu de SVF. Le jour de l'expérience, le milieu était aspiré puis les cellules étaient lavées avec du PBS à 37°C. […]

MUC5AC = MUC5AC expression in HT29-MTX cells (RT-PCR); settings: with cyprodime, quantitative RT-PCR (Lightcycler)
Protocol: as §1
as §2, with “stade.” for “stade. Des dilutions successives ([Y], [Y]/2 et [Y]/5) étaient ensuite réalisées dans du milieu de culture dépourvu de SVF. Le jour de l'expérience, le milieu était aspiré puis les cellules étaient lavées avec du PBS à 37°C.”
(§3) Les ARN ont été isolés et rétro-transcrits comme décrit précédemment puis les ADNc ont été quantifiés en capillaires à l'aide du kit « FastStart DNA Master SYBR Green l » sur un appareil « lightCycler » (Roche). […]

MUC4 = MUC4 expression in HT29-MTX cells (RT-PCR)
Protocol: as §1
as §2, with “stade.” for “stade. Des dilutions successives ([Y], [Y]/2 et [Y]/5) étaient ensuite réalisées dans du milieu de culture dépourvu de SVF. Le jour de l'expérience, le milieu était aspiré puis les cellules étaient lavées avec du PBS à 37°C.”
as §3

MUC2 = MUC2 expression in HT29-MTX cells (RT-PCR); settings: with cyprodime 10^-5 M
Protocol: as §1
as §2, with “stade.” for “stade. Des dilutions successives ([Y], [Y]/2 et [Y]/5) étaient ensuite réalisées dans du milieu de culture dépourvu de SVF. Le jour de l'expérience, le milieu était aspiré puis les cellules étaient lavées avec du PBS à 37°C.”
as §3

COc1cccc2c1[C@]13CCN(CC4CC4)[C@H](C2)[C@]1(OC)CCC(=O)C3 [cyprodime]
sécrétion de mucines induite par la fraction F3 (HT29-MTX; fraction F3 at concentration Y): inhibe | sécrétion de mucines induite par la fraction C2 (HT29-MTX; then fraction C2 at concentration Y, 4 h): inhibe | augmentation du niveau des transcrits codant MUC5AC induite par la fraction F3 (MUC5AC): abolit | effet de la fraction C2 sur l'expression de MUC4 (MUC4; with cyprodime 10^-5 M): aboli | augmentation du niveau des transcrits codant MUC4 induite par la fraction F3 (MUC4; with cyprodime, quantitative RT-PCR (Lightcycler)): Un résultat identique | effet de la fraction C2 sur l'expression de MUC2 (MUC2): aboli
